The record followed here is US6166023A, “1,5- and 3-O-substituted 1H-indazoles having anti-asthmatic, anti-allergic, anti-inflammatory, immunomodulating and neuroprotective action, process for their preparation and their use as medicaments” (Arzneimittelwerk Dresden GmbH, priority 1998, dated 2000).

In assay [1] the target is human cyclophilin B (Homo sapiens, UniProt P23284). Kind of assay: Peptidylprolyl isomerase (PPIase) activity inhibition assay. The note with it: Cyp B, test peptide Suc-Ala-Ala-Pro-Phe-Nan. Format: biochemical. The protocol:
To determine the anti-asthmatic, anti-allergic, anti-inflammatory and/or immunomodulating properties of the compounds according to the invention, in-vitro and in-vivo investigations were carried out. […] For the initial screening (10 μmol/l), the inhibition of human cyclophilin B in the PPIase test is determined.
The PPIase activity is tested according to a globally customary enzyme test: G. Fischer, H. Bang, C. Mech, Biomed. Biochim. Acta 43 1101-1111; G. Fischer, H. Bang, A. Schellenberger, Biochim. Biophys. Acta 791 (1984), 87-97; D. H. Rich et al., J. Med. Chem. 38 (1995), 4164-4170.
The compounds of the general formula I according to the invention are preincubated at 4° C. for 15 minutes together with 10 nmol of Cyp B. The enzyme reaction is started using the test peptide Suc-Ala-Ala-Pro-Phe-Nan after addition of chymotrypsin and HEPES buffer. The extinction change at 390 nm is then monitored and evaluated. The photometrically determined extinction change results from two sub-reactions: a) the rapid chymotryptic cleavage of the trans-peptide; b) the non-enzymatic cis-trans isomerization, which is catalysed by cyclophilins.

Assay [2] concerns pulmonary eosinophil infiltration. Description: Inhibition of late-phase eosinophilia 24 h after inhalational ovalbumin challenge in actively sensitized guinea-pigs. The class given is in vivo. To be noted: BAL 24 h after OVA challenge. The procedure:
The inhibition of pulmonary eosinophil infiltration by the substances is tested in an in-vivo test on male Dunkin-Hartley guinea-pigs (200-250 g) sensitized against ovalbumin (OVA). The sensitization is carried out by means of two intraperitoneal injections of a suspension of 20 μg of OVA together with 20 mg of aluminium hydroxide as an adjuvant in 0.5 ml of physiological saline solution per animal on two successive days. 14 days after the second injection, the animals are pretreated with mepyramine maleate (10 mg/kg i.p.) in order to protect them from anaphylactic death. 30 minutes later, the animals are exposed for 30 sec in a plastic box to an OVA aerosol (0.5 mg/ml) which is generated by a nebulizer driven by compressed air (19.6 kPa) (allergen challenge). Control animals are nebulized with physiological saline solution. 24 hours after the challenge, the animals are anaesthetized with an overdose of ethylurethane (1.5 g/kg of body weight i.p.) and a bronchoalveolar lavage (BAL) is carried out with 2×5 ml of physiological saline solution. The BAL fluid is collected, centrifuged at 300 rpm for 10 min and the cell pellet is then resuspended in 1 ml of physiological saline solution. The eosinophils are stained using the Becton-Dickinson test kit (N. 5877) for eosinophils and counted in a Neubauer chamber. 2 control groups (nebulization with physiological saline solution and nebulization with OVA solution) are additionally included in each test.
The percentage inhibition of the eosinophilia of the test group treated with substance is calculated according to the following formula:
(A-C)-(B-C)/(A-C)×100=% inhibition
The test substances are administered intraperitoneally or orally as a suspension in 10% polyethylene glycol 300 and 0.5% strength 5-hydroxyethylcellulose 2 hours before allergen challenge. The control groups are treated with the vehicle according to the administration form of the test substance. The number of animals per control and test group is 3-10.

Molecules are shown by their SMILES.

Chain of human cyclophilin B (P23284 34-216): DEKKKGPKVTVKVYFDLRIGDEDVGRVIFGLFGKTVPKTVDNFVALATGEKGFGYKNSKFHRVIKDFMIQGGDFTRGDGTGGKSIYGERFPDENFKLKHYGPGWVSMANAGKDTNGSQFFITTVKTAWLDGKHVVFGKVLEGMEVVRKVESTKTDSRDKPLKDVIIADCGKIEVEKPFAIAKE

What is called inhibition is the relative decrease from the control value, in per cent. High values mean a strong effect, low ones a weak effect. In assay [1], `COc1ccc2c(c1)c(OCCOc1c(F)cc(F)cc1Br)nn2S(=O)(=O)c1ccc(C)cc1` [Example 1, 3-[2-(2-Bromo-4,6-difluorophenoxy)ethoxy]-5-methoxy-1-(toluene-4-sulphonyl)-1H-indazole] had an inhibition at 10 µM of 95%. In assay [2] (10 mg/kg i.p. -2 h), the “Eosinophil million/animal x ± s, B = group treated with substance with OVA challenge” value (shortened to “Eosinophil million/animal x ± s”) was 1.23 ± 0.38 million/animal and the “Inhibition [%] of eosinophilia” value is given as 61%. Besides, in assay [2] (30 mg/kg p.o. -2 h), the “Eosinophil million/animal x ± s” value is reported as 1.75 ± 1.86 million/animal and the “Inhibition [%] of eosinophilia” value turned out to be 65%.
Turning to `COc1ccc2c(c1)c(OCCOc1ccc(Cl)cc1)nn2S(=O)(=O)c1ccc(Cl)cc1` [Example 7], the inhibition at 10 µM in assay [1] came out at 70%.
For the molecule `COc1ccc2c(c1)c(OCCOc1ccc(Cl)cc1)nn2S(=O)(=O)c1ccc(F)cc1` [Example 8], in assay [2] (10 mg/kg i.p. -2 h), the “Eosinophil million/animal x ± s” value came to 1.84 ± 0.94 million/animal and the “Inhibition [%] of eosinophilia” value is on record as 41%.
In assay [1], `COc1ccc(S(=O)(=O)n2nc(OCCOc3ccc(Cl)cc3)c3cc(OC)ccc32)cc1` [Example 9] displayed an inhibition at 10 µM of 90%.
`COc1ccc2c(c1)c(OCc1noc(-c3cccc(C(F)(F)F)c3)n1)nn2S(=O)(=O)c1ccc(C)cc1` [Example 32, 5-Methoxy-1-(toluene-4-sulphonyl)-3-[5-(3-trifluoromethylphenyl)-1,2,4-oxadiazol-3-ylmethoxy]-1H-indazole] gave an inhibition at 10 µM in assay [1] of 70%. In assay [2] (10 mg/kg i.p. -2 h), the “Eosinophil million/animal x ± s” value turned out to be 0.86 ± 0.49 million/animal and the “Inhibition [%] of eosinophilia” value is given as 85%.
In assay [1], `COc1ccc2c(c1)c(OCc1ccc(Cl)cc1[N+](=O)[O-])nn2S(=O)(=O)c1ccc(C)cc1` [Example 41] gave an inhibition at 10 µM of 71%.
On the same count and under the same terms, the value for `COc1ccc2c(c1)c(OCC(=O)Nc1ccc(F)cc1F)nn2S(=O)(=O)c1ccc(C)cc1` [Example 66, N-(2,4-Difluorophenyl)-2-[5-methoxy-1-(toluene-4-sulphonyl)-1H-indazol-3-yloxy]acetamide] was 40%.
`COc1ccc2c(c1)c(OCC(=O)Nc1ccc(Cl)cc1Cl)nn2S(=O)(=O)c1ccc(C)cc1` [Example 73] displayed an inhibition at 10 µM in assay [1] of 67%.
Same read-out and setting: the value for `COc1ccc2c(c1)c(OCc1c(Cl)cccc1Cl)nn2Cc1cccc([N+](=O)[O-])c1` [Example 84] was 90%.
Turning to `COc1ccc2c(c1)c(OCCOc1ccc([N+](=O)[O-])cc1)nn2Cc1ccc(F)cc1` [Example 91, 1-(4-Fluorobenzyl)-5-methoxy-3-[2-(4-nitrophenoxy)ethoxy]-1H-indazole], in assay [2] (10 mg/kg i.p. -2 h), the “Eosinophil million/animal x ± s” value is 1.16 ± 0.65 million/animal and the “Inhibition [%] of eosinophilia” value is reported as 71%.
For the molecule `COc1ccc2c(c1)c(OCCOc1c(F)cc(F)cc1Br)nn2CCOc1ccc([N+](=O)[O-])cc1` [Example 99, 3-[2-(2-Bromo-4,6-difluorophenoxy)ethoxy]-5-methoxy-1-[2-(4-nitrophenoxy)ethyl]-1H-indazole], in assay [2] (10 mg/kg i.p. -2 h), the “Eosinophil million/animal x ± s” value is 1.35 ± 0.67 million/animal and the “Inhibition [%] of eosinophilia” value was 46%. Besides, in assay [2] (30 mg/kg p.o. -2 h), the “Eosinophil million/animal x ± s” value was determined as 1.33 ± 0.23 million/animal and the “Inhibition [%] of eosinophilia” value was found to be 33%.
As for `COc1ccc2c(c1)c(OCc1cc(C(C)=O)ccc1OC)nn2CCOc1ccc([N+](=O)[O-])cc1` [Example 107], in assay [2] (10 mg/kg i.p. -2 h), the “Eosinophil million/animal x ± s” value is 1.44 ± 0.92 million/animal and the “Inhibition [%] of eosinophilia” value was 68%.
`O=C(Nc1ccc2c(c1)c(OCCOc1ccc([N+](=O)[O-])cc1)nn2Cc1ccc(Cl)cc1Cl)Nc1cccc2ccccc12` [Example 114, 1-{1-(2,4-Dichlorobenzyl)-3-[2-(4-nitrophenoxy)ethoxy]-1H-indazol-5-yl}-3-naphthalen-1-ylurea] gave an inhibition at 10 µM in assay [1] of 100%. For the same molecule, in assay [2] (10 mg/kg i.p. -2 h), the “Eosinophil million/animal x ± s” value was 1.19 ± 0.43 million/animal and the “Inhibition [%] of eosinophilia” value stood at 58%.
In assay [1], `O=C(Nc1ccc2c(c1)c(OCCOc1ccc([N+](=O)[O-])cc1)nn2Cc1ccc(Cl)c(Cl)c1)Nc1cccc2ccccc12` [Example 116] showed an inhibition at 10 µM of 90%.
